Assay results published in patent publication US4207339A, “Anti-ulcer pharmaceutical composition containing inositol hexasulfate or an alkaline metal salt thereof as active ingredient” (Mitsui Toatsu Chemicals, Incorporated, priority 1978, dated 1980).
Structures can show the parent of a compound that is named as a salt. Where two headings read alike, the source gives them in different places.

Columns and labels:
Gastric Juice Secretion = test: Effect on gastric juice secretion (pyloric ligation); format: in vivo, Male rats of the Donryu strain; conditions: 250 mg/kg, p.o.; 4 hours; control 4.9 ± 0.4; significant at 5% level
Experimental: (§1) Male rats of the Donryu strain, 11 weeks of age, were used in groups of ten. After 24 hours of fasting, the pyloric part of the stomach was ligated. Four hours later, the gastric juice was collected and its volume was measured. Then, its acidity was determined by titrating an aliquot of the gastric juice with 0.05 N sodium hydroxide. Further, the activity of pepsin was determined by Anson's method. A definite amount (250 mg/kg) of a compound to be tested was orally administered immediately after the pyloric ligation.

Aspirin Ulcer = test: Anti-ulcer effect: aspirin ulcer; format: in vivo, Male rats of the Donryu strain; conditions: p.o., aspirin 250 mg/kg, 6 hours
Experimental: (§2) The anti-ulcer effect of some compounds of this invention was evaluated with regard to various types of experimental gastric and duodenal ulcers. The method of evaluation for each type of ulcer is outlined below.
Male rats of the Donryu strain, 10 to 11 weeks of age, were used in groups of ten. After 24 hours of fasting, a certain amount of a compound to be tested was orally administered to each animal of a group. Ten minutes later, aspirin was orally administered in a dose of 250 mg/kg. After 6 hours, the size of the ulcer formed in the glandular part of the stomach was rated by visual inspection and regarded as an ulcer index (U.I.). The results are also expressed in terms of the percentage of inhibition based on the U.I. obtained in the control group receiving no compounds to be tested.

Stress Ulcer = test: Anti-ulcer effect: stress ulcer; format: in vivo, Male rats of the Wistar strain; conditions: p.o., stress for 16 hours, vs control U.I.
Experimental: as §2
Male rats of the Wistar strain, 8 weeks of age, were used in groups of ten. Each animal was immobilized in a stressing cage as developed by Takagi et al., immersed in water at 23° C. to the level of the xiphoid process, and thereby subjected to stress for 16 hours. Thereafter, the stomach was excised. The length of the ulcer formed in the glandular part of the stomach was measured and regarded as an ulcer index (U.I.). A certain amount of a compound to be tested was orally administered just before subjecting the animal to stress. The results are also expressed in terms of the percentage of inhibition based on the U.I. obtained in the control group receiving no compounds to be tested.

Shay's Ulcer = test: Anti-ulcer effect: Shay's ulcer (pyloric ligation); format: in vivo, Male rats of the Wistar strain; conditions: p.o., 12 hours, vs control U.I.
Experimental: as §2
Male rats of the Wistar strain, 7 or 8 weeks of age, were used in groups of ten. After 48 hours of fasting, the pyloric part of the stomach was ligated under ether anesthesia. Immediately after the operation, a certain amount of a compound to be tested was orally administered to each animal of a group. After 12 hours, the degree of ulceration occurring in the anterior part of the stomach was rated and regarded as an ulcer index (U.I.). Control rats were treated in the same manner as described above, except that they received no compounds to be tested. The results given in Table 1 are expressed in terms of the percentage of inhibition based on the U.I. obtained in the control group.

Acetic Acid Ulcer = test: Anti-ulcer effect: acetic acid ulcer; format: in vivo, Male rats of the Wistar strain; conditions: p.o., twice a day for 7 days
Experimental: as §2
Male rats of the Wistar strain, 6 weeks of age, were used in groups of ten. Under ether anesthesia, each animal was laparotomized, a round frame (with an inside diameter of 5 mm) made of stainless steel was applied to the anterior wall of the stomach, and 100% acetic acid was poured into the frame. After 30 seconds, the acetic acid was removed and the abdomen was closed. Starting on the 7th day after the operation, a certain amount of a compound to be tested was orally administered twice a day to each animal of a group for a period of 7 days. Thereafter, the degree of healing of the ulcer was rated by visual inspection and regarded as an ulcer index (U.I.). The results are also expressed in terms of the percentage of healing based on the U.I. obtained in the control group receiving no compounds to be tested.

Gastric Juice Acidity = test: Effect on gastric juice acidity (pyloric ligation, titration with 0.05 N sodium hydroxide); format: in vivo, Male rats of the Donryu strain; conditions: 250 mg/kg, p.o.; 4 hours; control 92.5 ± 3.7; significant at 5% level
Experimental: as §1

pepsin = test: Effect on pepsin activity (pyloric ligation, Anson's method); format: in vivo, Male rats of the Donryu strain; conditions: 250 mg/kg, p.o.; 4 hours; control 7.4 ± 0.5; significant at 1% level
Experimental: as §1

Mouse = conditions: 7 days observation
Experimental: Male and female mice of the dd Y strain, 4 weeks of age, as well as male and female rats of the rats of the Wistar strain, 7 weeks of age, were used in groups of ten. They were preliminarily raised for a week. Then, a compound to be tested (sodium salt) was dissolved in physiological saline solution and administered orally or subcutaneously. In the case of oral administration, the highest possible doses of 0.2 ml/10 g for mice and 2 ml/100 g for rats were used which both corresponded to 5,000 mg/kg. In the case of subcutaneous administration, the doses were reduced to 1/2. […] The animals that died during this period of observation were subjected to post-mortem examination.

Rat = test: Acute toxicity in rats; format: in vivo, Male and female rats of the Wistar strain; conditions: 7 days observation
Description: They were preliminarily raised for a week.

[1] = tested on: Cysteamine Duodenal Ulcer; test: Anti-ulcer effect: cysteamine duodenal ulcer; format: in vivo, Male rats of the Donryu strain; conditions: p.o., cysteamine hydrochloride 400 mg/kg, 18 hours
Experimental: as §2
(iv) Cysteamine Duodenal Ulcer
Male rats of the Donryu strain, 10 or 11 weeks of age, were used in groups of ten. After 24 hours of fasting, a certain amount of a compound to be tested was orally administered to each animal of a group. Thirty minutes later, cysteamine hydrochloride was orally administered in a dose of 400 mg/kg. After 18 hours, the product of the maximum and minimum diameters of the ulcer formed in the duodenum was determined and regarded as an ulcer index (U.I.). The results are also expressed in terms of the percentage of inhibition based on the U.I. obtained in the control group receiving no compounds to be tested.

| SMILES | Amount of Gastric Juice Secreted (Gastric Juice Secretion) [mL] | percentage of inhibition (Aspirin Ulcer) (Aspirin Ulcer; 100 mg/kg) | percentage of inhibition (Aspirin Ulcer) (Aspirin Ulcer; 250 mg/kg) | percentage of inhibition (Stress Ulcer) (Stress Ulcer; 250 mg/kg) | percentage of inhibition (Shay's Ulcer) (Shay's Ulcer; 100 mg/kg) | percentage of inhibition (Shay's Ulcer) (Shay's Ulcer; 250 mg/kg) | percentage of healing (Acetic Acid Ulcer) (Acetic Acid Ulcer; 100 mg/kg) | percentage of healing (Acetic Acid Ulcer) (Acetic Acid Ulcer; 250 mg/kg) | Acidity of Gastric Juice (Gastric Juice Acidity) [mEq/l] | Activity of Pepsin (pepsin) [mg/mL] | further results |
| --- | --- | --- | --- | --- | --- | --- | --- | --- | --- | --- | --- |
| O=S(=O)(O)OC1C(OS(=O)(=O)O)C(OS(=O)(=O)O)C(OS(=O)(=O)O)C(OS(=O)(=O)O)C1OS(=O)(=O)O (stereo not shown) [Potassium Salt, inositol hexasulfate potassium salt] | 3.5 ± 0.4 | 46 percentage of inhibition | 40 percentage of inhibition | 25 percentage of inhibition | 85 percentage of inhibition | 80 percentage of inhibition | 28 percentage of healing | 22 percentage of healing | 60.2 ± 11.8 | 5.2 ± 0.4 |  |
| O=S(=O)([O-])OC1C(OS(=O)(=O)[O-])C(OS(=O)(=O)[O-])C(OS(=O)(=O)[O-])C(OS(=O)(=O)[O-])C1OS(=O)(=O)[O-].[Na+].[Na+].[Na+].[Na+].[Na+].[Na+] (stereo not shown) [Sodium Salt, inositol hexasulfate sodium salt] | 3.3 ± 0.4 | 44 percentage of inhibition | 48 percentage of inhibition | 27 percentage of inhibition | 92 percentage of inhibition | 77 percentage of inhibition | 29 percentage of healing | 16 percentage of healing | 58.4 ± 11.7 | 5.0 ± 0.4 | percentage of inhibition (Aspirin Ulcer) (Aspirin Ulcer; 50 mg/kg): 11 percentage of inhibition; percentage of inhibition (Stress Ulcer) (Stress Ulcer; 500 mg/kg): 50 percentage of inhibition; percentage of inhibition (Shay's Ulcer) (Shay's Ulcer; 50 mg/kg): 74 percentage of inhibition; percentage of healing (Acetic Acid Ulcer) (Acetic Acid Ulcer; 500 mg/kg): 38 percentage of healing; LD50 (Mouse; Oral): > 5,000 mg/kg; LD50 (Mouse; Subcutaneous): > 2,500 mg/kg; LD50 (Rat; Oral): > 5,000 mg/kg; LD50 (Rat; Subcutaneous): > 2,500 mg/kg; percentage of inhibition (Cysteamine Duodenal Ulcer) ([1]; 100 mg/kg): 37 percentage of inhibition; percentage of inhibition (Cysteamine Duodenal Ulcer) ([1]; 250 mg/kg): 46 percentage of inhibition; percentage of inhibition (Cysteamine Duodenal Ulcer) ([1]; 500 mg/kg): 77 percentage of inhibition |
